# Earlier results as cited in publication PMC3530844 (ACS medicinal chemistry letters, 2012).
# What was measured:
# hD2 receptors = hD2 receptors (Homo sapiens, UniProt P14416); details: [35S]GTPγS; ref Ghosh et al., J. Med. Chem. 2010, 53, 2114-2125
# hD3 receptors = hD3 receptors (Homo sapiens, UniProt P35462); details: [35S]GTPγS; ref Ghosh et al., J. Med. Chem. 2010, 53, 2114-2125
# Chain of hD3 receptors (P35462 whole entry): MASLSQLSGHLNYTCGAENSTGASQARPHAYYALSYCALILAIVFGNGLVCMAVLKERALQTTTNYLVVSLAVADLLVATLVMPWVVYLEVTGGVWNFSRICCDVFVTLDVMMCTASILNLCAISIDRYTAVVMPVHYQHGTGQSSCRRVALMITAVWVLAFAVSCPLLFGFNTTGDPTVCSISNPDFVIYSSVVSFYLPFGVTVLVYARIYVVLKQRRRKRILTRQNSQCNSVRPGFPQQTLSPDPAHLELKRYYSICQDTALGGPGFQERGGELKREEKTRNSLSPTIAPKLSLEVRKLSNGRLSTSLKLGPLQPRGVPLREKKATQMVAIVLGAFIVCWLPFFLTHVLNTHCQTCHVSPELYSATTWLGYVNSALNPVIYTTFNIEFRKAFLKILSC
# Chain of hD2 receptors (P14416 whole entry): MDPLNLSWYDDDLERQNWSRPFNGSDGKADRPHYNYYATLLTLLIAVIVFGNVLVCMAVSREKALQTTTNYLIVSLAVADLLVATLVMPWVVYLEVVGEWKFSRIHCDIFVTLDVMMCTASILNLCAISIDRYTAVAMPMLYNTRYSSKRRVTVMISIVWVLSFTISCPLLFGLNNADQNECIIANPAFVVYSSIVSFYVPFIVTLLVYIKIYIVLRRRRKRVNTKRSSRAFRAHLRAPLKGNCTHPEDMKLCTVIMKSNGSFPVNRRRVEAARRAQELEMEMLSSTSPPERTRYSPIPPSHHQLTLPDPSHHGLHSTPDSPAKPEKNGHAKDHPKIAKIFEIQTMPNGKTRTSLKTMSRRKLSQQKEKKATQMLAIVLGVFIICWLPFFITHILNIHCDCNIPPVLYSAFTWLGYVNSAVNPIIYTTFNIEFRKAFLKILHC
smiles,measurement,setting,value
CCCN(CCC)CCc1cccc2c1CC(=O)N2 [Ropinirole],%Emax hCHO-D2,hD2 receptors,74 ± 0.9%
same,%Emax hCHO-D3,hD3 receptors,67 ± 8%
